Source: ChEMBL document CHEMBL4371033, “Highly Potent and Selective Plasmin Inhibitors Based on the Sunflower Trypsin Inhibitor-1 Scaffold Attenuate Fibrinolysis in Plasma” (J Med Chem, 2019)
Residues, ends and D or L forms follow the SMILES beside them.

How the values were obtained:
[1] = target: Tissue-type plasminogen activator (Homo sapiens, UniProt P00750); test: Inhibition of tPA (unknown origin) using Z-Pyr-Gly-Arg-MCA as substrate after 30 mins relative to untreated control
Cathepsin G = target: T1, Cathepsin G (Homo sapiens, UniProt P08311); test: Inhibition of human cathepsin G using Suc-AAPF-MCA as substrate after 30 mins
T1 sequence (P08311 whole entry): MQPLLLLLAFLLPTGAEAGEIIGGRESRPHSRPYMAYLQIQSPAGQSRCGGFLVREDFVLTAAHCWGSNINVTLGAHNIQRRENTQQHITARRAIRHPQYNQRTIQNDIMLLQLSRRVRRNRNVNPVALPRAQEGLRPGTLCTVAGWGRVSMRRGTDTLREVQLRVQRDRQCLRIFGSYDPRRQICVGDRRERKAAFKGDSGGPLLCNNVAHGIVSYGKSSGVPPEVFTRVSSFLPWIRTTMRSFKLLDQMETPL

Prothrombin [2] = target: T2, Prothrombin (Homo sapiens, UniProt P00734); test: Inhibition of human thrombin using Ac-ATPR-pNA as substrate after 30 mins
Coagulation factor IX = Coagulation factor IX (Homo sapiens, UniProt P00740); test: Inhibition of activated beta-factor 9 (unknown origin) using Boc-QGR-MCA as substrate after 30 mins relative to untreated control
Sequence of Coagulation factor IX (P00740 47-191 limits assumed): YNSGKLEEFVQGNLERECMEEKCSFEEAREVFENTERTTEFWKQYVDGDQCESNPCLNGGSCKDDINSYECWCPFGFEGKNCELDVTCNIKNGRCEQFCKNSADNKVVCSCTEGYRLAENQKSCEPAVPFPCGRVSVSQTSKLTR
Sequence of Coagulation factor IX (P00740 227-461 limits assumed): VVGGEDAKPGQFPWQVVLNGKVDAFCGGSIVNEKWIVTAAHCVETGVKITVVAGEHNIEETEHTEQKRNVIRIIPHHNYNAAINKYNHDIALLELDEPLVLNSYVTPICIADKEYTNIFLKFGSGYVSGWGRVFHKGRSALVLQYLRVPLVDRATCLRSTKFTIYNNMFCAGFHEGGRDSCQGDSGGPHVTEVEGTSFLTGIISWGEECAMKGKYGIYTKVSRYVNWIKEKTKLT

[3] = target: Urokinase-type plasminogen activator (Homo sapiens, UniProt P00749); test: Inhibition of uPA (unknown origin) using Z-Pyr-Gly-Arg-MCA as substrate after 30 mins relative to untreated control
Plasma kallikrein [4] = target: T3, Plasma kallikrein (Homo sapiens, UniProt P03952); test: Inhibition of plasma KLK (unknown origin) using Ac-NLTR-pNA as substrate after 30 mins
T3 sequence (P03952 20-390 limits assumed): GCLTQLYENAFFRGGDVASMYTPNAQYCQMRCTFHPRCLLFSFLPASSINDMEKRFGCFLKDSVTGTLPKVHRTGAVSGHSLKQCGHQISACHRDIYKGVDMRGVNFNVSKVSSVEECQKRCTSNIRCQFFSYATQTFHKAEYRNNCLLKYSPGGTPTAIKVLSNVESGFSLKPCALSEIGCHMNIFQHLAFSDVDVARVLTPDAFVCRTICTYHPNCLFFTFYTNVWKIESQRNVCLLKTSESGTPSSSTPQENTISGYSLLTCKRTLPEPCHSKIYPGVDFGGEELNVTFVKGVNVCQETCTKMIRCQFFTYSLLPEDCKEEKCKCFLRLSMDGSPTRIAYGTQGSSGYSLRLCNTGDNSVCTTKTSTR
T3 sequence (P03952 391-638 limits assumed): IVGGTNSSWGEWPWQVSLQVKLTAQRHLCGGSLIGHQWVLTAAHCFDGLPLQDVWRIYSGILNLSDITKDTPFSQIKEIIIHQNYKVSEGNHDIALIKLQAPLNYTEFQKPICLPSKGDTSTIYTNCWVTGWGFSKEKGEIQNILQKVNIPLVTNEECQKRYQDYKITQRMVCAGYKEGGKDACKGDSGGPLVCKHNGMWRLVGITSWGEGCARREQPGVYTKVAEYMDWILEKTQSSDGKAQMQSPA

Plasminogen = Plasminogen (Homo sapiens, UniProt P00747); test: Inhibition of human plasmin using Ac-RM(O2)YR-pNA as substrate after 30 mins
Sequence of Plasminogen (P00747 97-580 limits assumed): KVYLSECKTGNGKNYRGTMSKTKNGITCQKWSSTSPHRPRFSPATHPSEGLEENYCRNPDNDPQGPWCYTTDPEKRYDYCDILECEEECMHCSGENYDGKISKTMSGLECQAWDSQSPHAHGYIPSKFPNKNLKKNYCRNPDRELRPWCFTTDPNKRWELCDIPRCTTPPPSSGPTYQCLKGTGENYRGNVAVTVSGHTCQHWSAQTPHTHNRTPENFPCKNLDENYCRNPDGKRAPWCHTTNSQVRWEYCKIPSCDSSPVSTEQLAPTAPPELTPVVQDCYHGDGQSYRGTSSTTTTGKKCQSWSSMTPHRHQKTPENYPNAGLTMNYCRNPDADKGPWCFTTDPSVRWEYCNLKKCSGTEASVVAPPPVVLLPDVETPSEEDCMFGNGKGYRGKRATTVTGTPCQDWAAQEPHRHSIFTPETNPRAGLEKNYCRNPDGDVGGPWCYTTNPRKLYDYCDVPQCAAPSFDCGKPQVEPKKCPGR
Sequence of Plasminogen (P00747 581-810 limits assumed): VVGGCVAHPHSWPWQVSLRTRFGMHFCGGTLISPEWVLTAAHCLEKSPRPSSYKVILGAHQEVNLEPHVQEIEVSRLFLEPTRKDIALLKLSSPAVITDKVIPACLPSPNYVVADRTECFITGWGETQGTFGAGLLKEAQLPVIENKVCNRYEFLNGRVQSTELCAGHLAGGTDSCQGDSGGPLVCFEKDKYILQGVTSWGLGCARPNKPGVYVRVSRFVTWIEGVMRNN

Coagulation factor X = Coagulation factor X (Homo sapiens, UniProt P00742); test: Inhibition of activated factor 10 (unknown origin) using Ac-QRSR-pNA as substrate after 30 mins relative to untreated control
Sequence of Coagulation factor X (P00742 41-179 limits assumed): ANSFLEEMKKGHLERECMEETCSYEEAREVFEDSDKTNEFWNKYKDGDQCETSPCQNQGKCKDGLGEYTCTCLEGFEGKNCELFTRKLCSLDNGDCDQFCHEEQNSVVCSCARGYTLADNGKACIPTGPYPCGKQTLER
Sequence of Coagulation factor X (P00742 235-488 limits assumed): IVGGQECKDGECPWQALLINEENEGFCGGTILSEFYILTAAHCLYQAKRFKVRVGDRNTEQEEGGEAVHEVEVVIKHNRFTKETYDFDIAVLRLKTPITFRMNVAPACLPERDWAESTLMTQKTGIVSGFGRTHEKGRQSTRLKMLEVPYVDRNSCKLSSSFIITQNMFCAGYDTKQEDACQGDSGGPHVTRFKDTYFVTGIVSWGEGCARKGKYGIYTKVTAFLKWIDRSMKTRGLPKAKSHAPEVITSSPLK

Serine protease 1 = target: T4, Serine protease 1 (Bos taurus, UniProt P00760); test: Inhibition of bovine cationic trypsin using Bz-FVR-pNA as substrate after 30 mins
T4 sequence (P00760 whole entry): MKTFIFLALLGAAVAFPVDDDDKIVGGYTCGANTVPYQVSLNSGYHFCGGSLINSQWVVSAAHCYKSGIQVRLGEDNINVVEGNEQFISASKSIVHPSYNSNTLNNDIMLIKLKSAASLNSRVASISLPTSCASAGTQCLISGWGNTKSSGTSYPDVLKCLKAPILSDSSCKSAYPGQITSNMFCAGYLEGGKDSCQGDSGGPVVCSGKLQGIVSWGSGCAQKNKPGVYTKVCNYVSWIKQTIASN

Coagulation factor XI [5] = target: T5, Coagulation factor XI (Homo sapiens, UniProt P03951); test: Inhibition of activated beta-factor 11 (unknown origin) using Bz-FVRpNA as substrate after 30 mins
T5 sequence (P03951 19-387 limits assumed): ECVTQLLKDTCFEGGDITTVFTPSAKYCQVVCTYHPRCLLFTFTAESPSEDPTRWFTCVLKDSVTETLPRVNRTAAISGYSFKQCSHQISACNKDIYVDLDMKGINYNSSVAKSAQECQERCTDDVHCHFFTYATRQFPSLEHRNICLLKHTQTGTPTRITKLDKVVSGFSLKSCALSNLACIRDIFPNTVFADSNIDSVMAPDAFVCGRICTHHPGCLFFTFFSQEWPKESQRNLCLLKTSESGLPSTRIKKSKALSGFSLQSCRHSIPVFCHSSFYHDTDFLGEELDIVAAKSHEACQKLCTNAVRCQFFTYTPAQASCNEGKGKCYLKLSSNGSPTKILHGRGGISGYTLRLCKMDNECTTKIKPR
T5 sequence (P03951 388-625 limits assumed): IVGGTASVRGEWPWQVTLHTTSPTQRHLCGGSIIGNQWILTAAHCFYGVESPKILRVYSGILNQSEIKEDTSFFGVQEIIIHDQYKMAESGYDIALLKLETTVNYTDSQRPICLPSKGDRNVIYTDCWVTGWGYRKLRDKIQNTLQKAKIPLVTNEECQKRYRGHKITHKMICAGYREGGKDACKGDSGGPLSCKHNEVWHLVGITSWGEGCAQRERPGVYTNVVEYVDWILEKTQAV

Coagulation factor XII [6] = target: T6, Coagulation factor XII (Homo sapiens, UniProt P00748); test: Inhibition of activated beta-factor 12 (unknown origin) using Ac-QRFR-pNA as substrate after 30 mins relative to untreated control
T6 sequence (P00748 whole entry): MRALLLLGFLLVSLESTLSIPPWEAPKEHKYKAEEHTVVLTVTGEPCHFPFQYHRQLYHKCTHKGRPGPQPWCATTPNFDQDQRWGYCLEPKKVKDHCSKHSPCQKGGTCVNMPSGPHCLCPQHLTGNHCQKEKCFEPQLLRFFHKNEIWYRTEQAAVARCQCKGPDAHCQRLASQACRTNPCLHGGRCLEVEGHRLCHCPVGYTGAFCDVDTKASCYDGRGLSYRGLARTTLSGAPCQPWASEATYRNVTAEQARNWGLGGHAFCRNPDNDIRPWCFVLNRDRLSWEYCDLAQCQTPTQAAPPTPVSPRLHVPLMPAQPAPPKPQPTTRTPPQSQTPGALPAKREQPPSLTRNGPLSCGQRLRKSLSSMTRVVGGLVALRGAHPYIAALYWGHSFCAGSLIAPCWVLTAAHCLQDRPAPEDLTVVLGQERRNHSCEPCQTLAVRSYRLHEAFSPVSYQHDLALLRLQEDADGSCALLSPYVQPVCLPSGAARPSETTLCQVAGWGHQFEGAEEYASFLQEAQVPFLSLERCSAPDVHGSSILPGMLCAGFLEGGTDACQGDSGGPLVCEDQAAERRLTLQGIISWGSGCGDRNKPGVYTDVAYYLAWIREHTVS

[7] = target: T7, Suppressor of tumorigenicity 14 protein (Homo sapiens, UniProt Q9Y5Y6); test: Inhibition of matriptase (unknown origin) using Boc-QAR-MCA as substrate after 30 mins
T7 sequence (Q9Y5Y6 whole entry): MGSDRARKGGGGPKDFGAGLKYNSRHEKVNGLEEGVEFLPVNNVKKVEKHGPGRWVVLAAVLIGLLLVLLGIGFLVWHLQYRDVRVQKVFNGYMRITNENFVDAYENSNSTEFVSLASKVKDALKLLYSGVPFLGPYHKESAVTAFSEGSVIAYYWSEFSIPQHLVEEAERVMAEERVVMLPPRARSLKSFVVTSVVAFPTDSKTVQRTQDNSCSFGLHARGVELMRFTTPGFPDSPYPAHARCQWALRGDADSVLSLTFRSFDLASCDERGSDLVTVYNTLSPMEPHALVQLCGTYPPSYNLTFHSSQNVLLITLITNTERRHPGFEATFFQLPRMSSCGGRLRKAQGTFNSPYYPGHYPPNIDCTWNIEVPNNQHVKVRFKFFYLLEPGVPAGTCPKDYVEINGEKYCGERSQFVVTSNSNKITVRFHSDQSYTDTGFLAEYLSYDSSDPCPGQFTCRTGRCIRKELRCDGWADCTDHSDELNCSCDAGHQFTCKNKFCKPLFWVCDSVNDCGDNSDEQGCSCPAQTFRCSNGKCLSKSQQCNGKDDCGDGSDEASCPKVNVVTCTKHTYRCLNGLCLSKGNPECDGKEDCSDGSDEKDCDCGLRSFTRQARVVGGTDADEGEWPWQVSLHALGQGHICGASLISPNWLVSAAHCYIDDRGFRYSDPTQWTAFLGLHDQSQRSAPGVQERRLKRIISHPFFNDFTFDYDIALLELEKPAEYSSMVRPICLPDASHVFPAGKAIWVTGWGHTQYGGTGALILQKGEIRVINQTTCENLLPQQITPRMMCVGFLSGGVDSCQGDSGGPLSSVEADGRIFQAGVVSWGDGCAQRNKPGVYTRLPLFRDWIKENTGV

Prothrombin [8] = target: T2, Prothrombin; test: Inhibition of human thrombin using Ac-ATPR-pNA as substrate after 30 mins relative to untreated control
Coagulation factor XI [9] = target: T5, Coagulation factor XI; test: Inhibition of activated beta-factor 11 (unknown origin) using Bz-FVRpNA as substrate after 30 mins relative to untreated control
Plasma kallikrein [10] = target: T3, Plasma kallikrein; test: Inhibition of plasma KLK (unknown origin) using Ac-NLTR-pNA as substrate after 30 mins relative to untreated control
[11] = target: T7, Suppressor of tumorigenicity 14 protein; test: Inhibition of matriptase (unknown origin) using Boc-QAR-MCA as substrate after 30 mins relative to untreated control
Trypsin (Sus scrofa) [12] = target: Trypsin (Sus scrofa) (UniProt P00761); test: Inhibition of porcine trypsin assessed as dissociation rate constant using peptide-pNA as substrate
Sequence of Trypsin (Sus scrofa) (P00761 whole entry): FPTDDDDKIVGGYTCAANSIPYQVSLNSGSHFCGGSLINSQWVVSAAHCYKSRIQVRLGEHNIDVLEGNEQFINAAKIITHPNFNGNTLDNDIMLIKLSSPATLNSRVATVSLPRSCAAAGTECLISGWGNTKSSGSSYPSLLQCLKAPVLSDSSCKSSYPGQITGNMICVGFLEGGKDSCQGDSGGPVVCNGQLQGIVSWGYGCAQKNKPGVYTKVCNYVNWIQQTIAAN

[13] = Inhibition of bovine trypsin pre-incubated for 60 mins before tos-GPR-AMC substrate addition; design: species or system Bos taurus
Trypsin (Sus scrofa) [14] = target: Trypsin (Sus scrofa) (UniProt P00761); test: Inhibition of porcine trypsin assessed as association rate constant using peptide-pNA as substrate
Coagulation factor XII [15] = target: T6, Coagulation factor XII; test: Inhibition of human beta-factor 12a using Ac-QRFR-pNA as substrate after 30 mins
[16] = target: T7, Suppressor of tumorigenicity 14 protein; test: Inhibition of recombinant human matriptase catalytic domain pre-incubated for 60 mins before Boc QAR-AMC substrate addition

Sequence of Tissue-type plasminogen activator (P00750 whole entry): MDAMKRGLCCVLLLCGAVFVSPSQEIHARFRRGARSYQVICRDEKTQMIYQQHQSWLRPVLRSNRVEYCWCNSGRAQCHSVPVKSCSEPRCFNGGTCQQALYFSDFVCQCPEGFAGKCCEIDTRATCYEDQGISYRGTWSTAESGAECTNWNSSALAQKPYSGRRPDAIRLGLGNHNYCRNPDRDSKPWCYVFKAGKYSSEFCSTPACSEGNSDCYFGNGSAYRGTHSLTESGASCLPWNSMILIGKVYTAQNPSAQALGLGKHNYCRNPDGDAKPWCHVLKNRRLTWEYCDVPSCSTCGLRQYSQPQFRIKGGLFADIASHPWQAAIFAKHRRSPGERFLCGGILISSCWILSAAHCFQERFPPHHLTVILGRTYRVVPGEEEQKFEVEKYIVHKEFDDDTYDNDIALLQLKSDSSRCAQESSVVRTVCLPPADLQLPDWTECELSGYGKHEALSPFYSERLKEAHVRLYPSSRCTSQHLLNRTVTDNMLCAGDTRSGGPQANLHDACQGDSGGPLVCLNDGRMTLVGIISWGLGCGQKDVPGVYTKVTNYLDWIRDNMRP

Ki [1]	Ki (Cathepsin G)	Ki (Coagulation factor IX)	Ki [3]	Ki (Plasminogen)	Ki (Coagulation factor X)	Ki (Serine protease 1)	Ki (Coagulation factor XII [6])	Ki (Prothrombin [8])	Compound	also measured
> 50 µM	7.8 µM	> 50 µM	> 50 µM	0.14 nM	> 50 µM	0.011 µM	> 50 µM	250 µM	CC[C@H](C)[C@@H]1NC(=O)[C@@H]2CCCN2C(=O)[C@@H]2CCCN2C(=O)[C@H]([C@@H](C)CC)NC(=O)[C@H](CO)NC(=O)[C@H](CCCCN)NC(=O)[C@H](Cc2ccc(O)cc2)NC(=O)[C@@H]2CSSC[C@H](NC1=O)C(=O)N[C@@H](Cc1ccccc1)C(=O)N1CCC[C@H]1C(=O)N[C@@H](CC(=O)O)C(=O)NCC(=O)N[C@@H](CCCNC(=N)N)C(=O)N2 (HELM PEPTIDE1{C.F.P.D.G.R.C.Y.K.S.I.P.P.I}$PEPTIDE1,PEPTIDE1,1:R3-7:R3|PEPTIDE1,PEPTIDE1,1:R1-14:R2$$$V2.0)	Ki (Prothrombin [2]): 250 µM; Ki (Plasma kallikrein [4]): 32 µM; Ki (Coagulation factor XI [5]): 13 µM; Ki [7]: 480 µM
> 50 µM	13 µM	> 50 µM	> 50 µM	0.041 nM	> 50 µM	0.028 µM	> 50 µM	> 50 µM	CC[C@H](C)[C@@H]1NC(=O)[C@@H]2CCCN2C(=O)[C@@H]2CCCN2C(=O)[C@H](CCCNC(=N)N)NC(=O)[C@H](CO)NC(=O)[C@H](CCCCN)NC(=O)[C@H](Cc2ccc(O)cc2)NC(=O)[C@@H]2CSSC[C@H](NC1=O)C(=O)N[C@@H](Cc1ccccc1)C(=O)N1CCC[C@H]1C(=O)N[C@@H](CC(=O)O)C(=O)NCC(=O)N[C@@H](CCCNC(=N)N)C(=O)N2 (HELM PEPTIDE1{C.F.P.D.G.R.C.Y.K.S.R.P.P.I}$PEPTIDE1,PEPTIDE1,1:R3-7:R3|PEPTIDE1,PEPTIDE1,1:R1-14:R2$$$V2.0)	Ki (Coagulation factor XI [9]): > 50 µM; Ki (Plasma kallikrein [10]): > 50 µM; Ki [11]: > 50 µM
									CC[C@H](C)[C@@H]1NC(=O)[C@@H]2CCCN2C(=O)[C@@H]2CCCN2C(=O)[C@H]([C@@H](C)CC)NC(=O)[C@H](CO)NC(=O)[C@H](CCCCN)NC(=O)[C@H]([C@@H](C)O)NC(=O)[C@@H]2CSSC[C@H](NC1=O)C(=O)N[C@@H](Cc1ccccc1)C(=O)N1CCC[C@H]1C(=O)N[C@@H](CC(=O)O)C(=O)NCC(=O)N[C@@H](CCCNC(=N)N)C(=O)N2	K (Trypsin (Sus scrofa) [12]): 0.5 ×10⁻⁴ /s; Ki [13]: 0.017 nM; K (Trypsin (Sus scrofa) [14]): 0.2 ×10⁷ /M/s; Ki (Coagulation factor XII [15]): 130 µM; Ki [16]: 0.2 µM
